Several values for one entry are separate records, joined by “and”; a condition that tells them apart may be missing. Identical values can stand only once.
How the values were obtained:
[1] = Biodistribution of i.v. administered radioiodinated compounds in balb/c mice;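 note: healthy mice given radioiodinated bisphosphonic acids, with randomly chosen groups of three animals per time point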
Description: (§2) Mice. Samples of 100 μl containing 50,100, 400, 140 or 45 KBq of 31a, 34a, 46a, 67a or 72a, respectively, were injected into the tail veins as single bolus injections. […] At 0.5 h, 2 h, 5 h and 24 h postinjection times the animals were sacrificed; except in the case of the phosphate phosphonate derivative 31 were the animals were sacrificed 0.25 h, 2 h, 5 h and 24 h postinjection. Randomly selected groups of three animals were used at each time point. The whole animals were weighed and dissected. The excised organs, i.e. femur, skull, blood, heart, lung, liver, kidney, spleen, stomach, large intestine and small intestine, were weighed separately prior to counting.
(§3) Radioactivity measurements of the labelled compounds were carried out with a liquid scintillation counter (Beckman LS 6500, Beckman Instruments, USA) or with a Capintec CRC-7R radioisotope calibrator (Capintec, USA). The radioactivity level of the excised organs was measured with an automated gamma counter (LKB Wallac 1282, Turku, Finland).

[2] = system: MT-1 cells; test: Antitumour efficacy, MT-1 skeletal metastases model in nude rats; format: in vivo; settings: for Mean survival time: 7 days after cell injection
Description: (§1) Initially, a skeletal metastases model in nude rats, including the human breast carcinoma line MT-1 (1) was tested. A total of 1×10^6 cells were injected into the left vintricula of the heart (L.V.) of 4-5 weeks old nude rats (2). A primary osteogenic sarcoma model in nude rats, was established by intratibial (i.t.) injection of 1×10^6 OHS cells (3-5). A total of 20 animals, allocated in four groups (n=5 for each group) were used for both cell lines. The animals inoculated with MT-1 cells were treated with 200, 300 or 400 MBq/kg of 46a seven days after cell injection. The animals inoculated with OHS cells were treated with 100, 200 or 400 MBq/kg of 46a seven days after cell inoculation. The control groups (MT-1 and OHS) received saline only. Doses were corrected for the actual weight of each animal and administered by single bolus tail vein injections.
The MT-1 model simulates formation of mixed lytic/sclerotic skeletal metastasis in breast cancer patients. The model had recently been established in immuno-deficient rats by injections into the left ventricula (L.V.) of the oestrogen receptor-negative human breast cancer (MT-1) cell line.^83,84,85 In this model, large masses of tumour cells build up in the spine, replacing the normal bone marrow and eroding the bone part of the spine.
Treatment with the hydroxybisphosphonate 46a was initiated 7 days after tumour cell inoculation, while the control group received saline only. […] In comparison, the mean survival times for the animals treated with 46a were 27.5 days (range 23-29, one survivor), 29.0 days (range 27-33) and 30.6 days (range 29-33) with increasing dose of 200, 300 and 400 MBq/kg, respectively (n=5 in each group).

[3] = mouse, in vivo
Description: as §2, §3

[4] = system: OHS cells; test: Antitumour efficacy, OHS osteogenic sarcoma model in nude rats; format: in vivo; settings: for Mean disease-free latency: 7 days after cell inoculation
Description: as §1
The OHS model had been established by intratibial injections of the osteogenic sarcoma (OHS) cell line in immuno-deficient rats.^86,87 Eventually, the rats develop palpable tibial tumours. At the time of treatment (7 days after cell inoculation) the tumours fill approximately 50-60% of the tibial cavity and have a substantial osteoid production closely resembling that of osteoblastic osteosarcomas in the clinic.^88 The model has been used to evaluate the antitumour efficacy of several drugs currently used in the treatment of bone-related cancer.
Disease-free latency was defined as the period between tumour cell inoculation and the time the diameter of the tumour-injected tibia had increased by 2-3 mm compared with that of the non-injected contralateral leg.

[5] = Biodistribution of HPLC-purified and nonpurified (crude) compound in nude rats; format: in vivo, congenitally athymic nude rats (Han rnu/rnu Rowett)
Description: Nude/nude rats with a body weight averaging 60 g were used in the biodistribution experiments. The aim of the study was to compare crude 3h with HPLC-purified 3h. The term “crude compound” refers to the diluted and neutralised labelling reaction mixture described hereinbefore. The compounds were administrated by tail vein injections of 200 μl for each animal, using three animals for each sample. 24 h after injection the animals were killed by a lethal injection and the tissue distribution determined.
Rats. […] At 24 h postinjection the animals were sacrificed, weighed and dissected.
To further evaluate the hydroxybisphosphonate 46a, biodistribution of this compound was obtained in rats. The goal of this experiment was to find whether there was a difference in the properties of the HPLC-purified compound as compared with a nonpurified sample.

[6] = Pharmacokinetics in mice by scintigraphy (gamma camera); format: in vivo, balb/c mice
Description: Pharmacokinetics in mice. Two animals weighing 20 g and 28 g were anaesthetized and given 250 μl single bolus tail vein injections containing 12 MBq of 46a. The animals were placed under a gamma camera and 2 min frames were collected for the following 2 h. The presented data refers to the animal weighing 20 g.
A gamma camera (ADAC, USA) equipped with a 6 mm pinhole collimator was used. Dynamic data were acquired using a 128×128 matrix size, the field of view was zoomed to the middle 25×25 cm of the camera, and 2 min frames were collected for 2 hours.
The progression from intravenous injection of the hydroxybisphosphonate 46a in mice (balb/c, 20 g) was monitored by means of scintigraphy for 2 h. Images were obtained and dynamic curves for the radioactivity detected in the kidneys and bladder were derived by interactively drawing regions around structures of interest (FIG. 9). […] This is due to the increased sensitivity in the middle of the image, where the accumulation occurs in the kidneys and bladder.

[7] = 24 h postinjection, i.v., listed as 3h
[8] = all animals treated (100, 200, 400 MBq/kg)

O=P(O)(O)C(O)(Cc1cccc([131I])c1)P(=O)(O)O [46a, 1-hydroxy(m-[^131I and ^125I]-iodophenyl)-ethylidene-1,1-bisphosphonic acid]
Uptake in femur ([1]; 0.5 h (30 min) postinjection, i.v.): 45.03±6.75 % ID/g
Uptake in femur ([1]; 0.5 h (30 min) postinjection, i.v., listed as 3h): 45±7 % ID/g
Activity in blood ([1]; 0.5 h postinjection, i.v.): 15.92±12.75 % ID/g
Uptake in kidneys ([1]; 0.5 h postinjection, i.v.): 18.64±1.78 % ID/g
Uptake in skull ([1]; 0.5 h postinjection, i.v.): 24.61±3.85 % ID/g
Uptake in femur ([1]; 2 h postinjection (peak), i.v.): 45.54±4.10 % ID/g
Uptake in femur ([1]; 2 h postinjection (peak), i.v., listed as 3h): 46±4 % ID/g
Activity in blood ([1]; 2 h postinjection, i.v.): 1.36±0.25 % ID/g
Femur to soft tissue ratio ([1]; 24 h, soft tissue with highest uptake): ≥ 7
Uptake in femur ([1]; 24 h postinjection, i.v.): 37.79±11.78 % ID/g
Uptake in kidneys ([1]; 24 h postinjection, i.v.): 5.16±2.00 % ID/g
Uptake in liver ([1]; 24 h postinjection, i.v.): 2.27±0.69 % ID/g
Uptake in femur [1, 7]: 38±12 % ID/g
Uptake in kidneys [1, 7]: 5±2 % ID/g
Uptake in liver [1, 7]: 2±0.7 % ID/g
Uptake in femur expressed as % gram dose per gram tissue ([1]; balb/c mice, 20-25 g, 2 h, maximum uptake, listed as 1): 1025 (balb/c mice, 20-25 g, 2 h), % gram dose per gram tissue
Uptake in stomach ([1]; balb/c mice, 20-25 g, 24 h): 0.13 ± 0.01 % ID/g
Uptake in the thyroid ([1]; balb/c mice, 20-25 g, 24 h): 0.06 ± 0.04 % injected dose/organ
Ratio between uptake in femur and kidney ([1]; balb/c mice, 20-25 g, 24 h, listed as 1): 7.3 (femur/kidney, balb/c mice, 20-25 g,
Ratio between uptake in femur and kidney ([1]; balb/c mice, 20-25 g, 24 h, listed as 3h): 7
In vivo stability relative to compound 2 and 3 ([1]; from thyroid and stomach uptake, Table 3): about 7 times
Discomfort or toxicity after administration of samples ([1]; single bolus tail vein injection, 100 μl): No sign of discomfort or toxicity was observed
Survival time, range ([2]; 200 MBq/kg): 23 to 29 days
Mean survival time ([2]; 200 MBq/kg, n=5): 27.5 days
Long time survivors ([2]; 200 MBq/kg, n=5): one survivor
Survival time, range ([2]; 300 MBq/kg): 27 to 33 days
Mean survival time ([2]; 300 MBq/kg, n=5): 29.0 days
Survival time, range ([2]; 400 MBq/kg): 29 to 33 days
Mean survival time ([2]; 400 MBq/kg, n=5): 30.6 days
p of increased survival time (lifetime) compared with controls ([2]; all dose levels (200, 300, 400 MBq/kg), Wilcoxon rank-sum test, long time survivors excluded): < 0.05
Lifetime after treatment ([2]; breast cancer model): increased lifetime
Bone-seeking properties [3]: potent bone-seekers
Disease-free latency, range ([4]; 100 MBq/kg): 18 to 32 days
Mean disease-free latency ([4]; 100 MBq/kg, n=5): 27 days
Survivors ([4]; 100 MBq/kg, n=5): one survivor
Disease-free latency, range ([4]; 200 MBq/kg): 26 to 36 days
Mean disease-free latency ([4]; 200 MBq/kg, n=5): 30 days
Survivors ([4]; 200 MBq/kg, n=5): one survivor
Disease-free latency, range ([4]; 400 MBq/kg): 26 to 36 days
Mean disease-free latency ([4]; 400 MBq/kg, n=5): 31 days
Long time survivors (>100 days) [4, 8]: 33%
Long time survivors (>100 days), animals [4, 8]: 5 of 15
Long time survivors ([4]; highest dose, 400 MBq/kg, n=5): 60%
Long time survivors (animals) ([4]; highest dose, 400 MBq/kg, n=5): 3 and 3 of 5
Long time survivors (animals) ([4]; highest dose, 400 MBq/kg, n=5, listed as 1): 3 of 5
P of increase in disease-free latency time compared to the other groups ([4]; highest dose, Kruskal-Wallis test): < 05
Lifetime after treatment ([4]; osteosarcoma model): dramatic increase in lifetime
Bone affinity of purified compound versus crude product ([5]; 24 h): 3 fold
Femur uptake ([5]; HPLC purified, nude/nude rats 60 g, 24 h): 1020 % g dose/g
Femur to soft tissue ratio ([5]; HPLC-purified sample, 24 h): > 45
Uptake in femur ([5]; HPLC-purified sample, 24 h): 16.44±1.96 % ID/g
Uptake in kidneys ([5]; HPLC-purified sample, 24 h): 0.36±0.03 % ID/g
Uptake in skull ([5]; HPLC-purified sample, 24 h): 5.84±0.35 % ID/g
Uptake in femur expressed as % gram dose per gram tissue ([5]; Rowett rats, 60 g, 24 h): 986 (Rowett rats, 60 g, 24 h) % gram dose per gram tissue
Uptake in stomach ([5]; Rowett rats, 60 g, 24 h): 0.05 ± 0.01 % ID/g
Uptake in the thyroid ([5]; Rowett rats, 60 g, 24 h): 0.02 ± 0.01 % injected dose/organ
Ratio between uptake in femur and kidney ([5]; Rowett rats, 60 g, 24 h, HPLC purified, listed as 1): 24 h) and 45.7 (femur/kidney,
Ratio between uptake in femur and kidney ([5]; Rowett rats, 60 g, 24 h, HPLC purified, listed as 3h): above 45
Femur to kidney ratio ([5]; nonpurified sample): 14
Femur to skull ratio ([5]; nonpurified sample): ~7
Uptake in the thyroid ([5]; nonpurified sample): 0.03±0.01 % of the total injected radioactivity
Uptake in femur ([5]; nonpurified sample, 24 h): 5.28±1.10 % ID/g
Injected activity accumulated in the bladder ([6]; after 2 hours, mouse 20 g, 12 MBq i.v.): 27%
Peak uptake in the kidneys (left and right) ([6]; at 45 min postinjection): 7.5 % of the injected dose
Biological half-life in the kidneys ([6]; from the peak at 45 min): 50 min
Estimated excretion of the injected dose ([6]; mouse, in vivo): 35%
Estimated retention of the injected dose ([6]; mouse, in vivo): 65%
Time of peak uptake in the kidneys ([6]; postinjection): 45 min

— patent US6548042B2, “Bis-phosphonate compounds” (priority 2000, dated 2003)
